Ki and EC50 data for 19 compounds are collected here from patent US20240398781A1, “SPIROCYCLIC CYCLIC MODULATORS OF CHOLESTEROL BIOSYNTHESIS AND THEIR USE FOR PROMOTING REMYELINATION” (GENENTECH, INC., priority 2021, published 2024).

Some results are limits rather than exact numbers.

For assay [1], the target named is human emopamil binding protein and human 7-dehydrocholesterol reductase co-expressing cells (hEBP-DHCR7 membrane) (Homo sapiens (Human), UniProt Q15125). Kind of assay: Radioligand filter binding assay on hEBP-DHCR7 membrane. The settings on record: [3H]-(S)-6-(2-Methyl-3-(6-(trifluoromethyl)pyridin-3-yl)propyl)-2-thia-6-azaspiro[3.4]octane 2,2-dioxide radioligand, HEK293 membrane co-expressing hEBP and hDHCR7. The protocol: Membrane Preparation: human emopamil binding protein and human 7-dehydrocholesterol reductase co-expressing cells were generated by transient transfecting host human embryonic kidney (HEK) 293 cells with 2 DNA constructs containing each protein's coding sequence. Cells were suspension cultured at 37° C. with 5% CO2 in […] 293 Expression Medium (Thermofisher). Whole cell membrane was prepared by harvesting the cell pellet, adding cold membrane buffer (50 mM Tris, pH7.5, lx Roche COMPLETE EDTA-free protease inhibitor cocktail) 10 times volume of the cell pellets weight, lysing cell pellet on ice by using Dounce homogenizer, spinning at 200 g 4° C. for 15 min, collecting supernatant and spinning again at 25000 g 4° C. for 50 min, transferring pellet to Dounce homogenizer, re-suspending pellet by homogenizing in membrane buffer on ice to reach ˜25 mg/mL, then keeping whole cell membrane aliquots at −80° C.
Compounds were prepared in a 96-well U bottom plate using an Echo550 machine and 10 mM compound DMSO stock solution, followed by an 8-dose 5-fold serial dilutions protocol with final testing compound concentration ranging from 0.06 to 5000 nM, with DMSO back fill to 100 nL/well and n=2. […] The UniFilter-96 GF/B plates were pre-treated by adding 50 μl/well of 0.3% (v/v) PEI to UniFilter-96 GF/B plates. The plates were sealed and incubated at 4° C. for 3 hrs. Then, the plates were washed with ice-cold assay buffer 3 times. The radioligand binding assay was prepared by adding assay buffer diluted hEBP-DHCR7 membrane at 66.7 μg/ml×150 μl/well into the 96-well compound plate to reach 10 μg membrane per well. Then, the assay buffer diluted [3H]—(S)-6-(2-Methyl-3-(6-(trifluoromethyl)pyridin-3-yl)propyl)-2-thia-6-azaspiro[3.4] octane 2,2-dioxide was added at 25 nM×50 μl/well. Following this, the plate was centrifuged at 1000 rpm for 30 secs. The plate was then sealed and agitated at 600 rpm at 22° C. for 5 min, and then incubated at 22° C. for 3 hrs. The incubation was stopped by transferring the binding solution to the pre-treated UniFilter-96 GF/B plate, vacuum filtrated, and then washed four times with ice-cold assay buffer. Following this, the plates were dried at 37° C. for 45 min. The plates were then sealed at the bottom. 40 μl/well of scintillation cocktail was added to the plates. A MicroBeta2 microplate counter was then used to read the plate and analyze the data. For reference and test compounds, the results are expressed as % Inhibition, using the normalization equation: N=100−100×(U−C2)/(C1−C2), where U is the unknown value, C1 is the average of high controls, and C2 is the average value of low controls. The IC50 was determined by fitting percentage of inhibition as a function of compound concentrations with Hill equation using XLfit. Results are expressed as hEBP-DHCR7 Ki (uM) in Table 4. Ki was calculated as described above. The asterix (*) indicates an isolated isomer or isolated group of isomers, but that the stereochemistry has not been assigned.

The subject of assay [2] is EBP (zymostenol accumulation in EpiSC-derived OPCs). Description: GC/MS-based sterol profiling, zymostenol accumulation in OPCs. The format is cell-based, mouse. The settings on record: Mus musculus, 24 h, EpiSC-derived OPCs, 24 hr treatment, 8 doses from 0.15 nM to 333 nM; read-out: Zymostenol GCMS EC50. On the procedure: To assess effects of treatments on OPCs, all treatments were assayed in two or more independent platings of epiblast stem cell-derived OPCs ([…]-derived OPCs were obtained using in vitro differentiation protocols and culture conditions described previously (Najm et al, 2011, Nature Methods). OPCs were expanded and frozen down in aliquots. OPCs were thawed into growth conditions for at least one passage before use in further assays. Sterols were monitored using a modified Folch wash protocol (Hubler et al, 2018, Nature). EpiSC-derived OPCs were plated at 100,000 cells per well in PO- and laminin-coated 96-well plates in N2B27 media without growth factors. After 24 hours, cells were rinsed with saline and plates were frozen. Cholesterol-d7 standard was then added to each well before drying under nitrogen stream and derivatization with 55 μl of bis(trimethylsilyl) trifluoroacetamide. After derivatization, 2 μl were analyzed by gas chromatography/mass spectrometry using an Agilent 5973 Network Mass Selective Detector equipped with a 6890 gas chromatograph system and a HP-5MS capillary column (30 m×0.25 mm×0.25 mm). Samples were analyzed in full scan mode using electron impact ionization; ion fragment peaks were integrated to calculate sterol abundance, and quantitation was relative to cholesterol-d7. […] All standards were obtained from Avanti Polar Lipids unless otherwise indicated. Calibration curves were generated by injecting varying concentrations of sterol standards and maintaining a fixed amount of cholesterol-D7. For normalized zymostenol accumulation results, the total amount of zymostenol measured after drug treatment was divided by the total amount of zymostenol accumulated after 24 hr treatment with 100 nM positive control reference.

human emopamil binding protein and human 7-dehydrocholesterol reductase co-expressing cells (hEBP-DHCR7 membrane), sequence (Q15125 whole entry): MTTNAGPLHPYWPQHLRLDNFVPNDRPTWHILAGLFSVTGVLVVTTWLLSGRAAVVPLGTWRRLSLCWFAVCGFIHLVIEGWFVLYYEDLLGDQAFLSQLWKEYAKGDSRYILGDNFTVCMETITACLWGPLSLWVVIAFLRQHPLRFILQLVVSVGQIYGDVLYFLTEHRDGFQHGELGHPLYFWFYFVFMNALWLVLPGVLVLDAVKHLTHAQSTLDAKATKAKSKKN

In general, Ki refers to a measure of affinity in units of concentration, obtained from inhibition or displacement. A low value points to a stronger hold on the target. Usually EC50 stands for the concentration needed to bring the measured effect to its halfway point. Consider `O=S1(=O)CC2(CCN([C@H]3CC[C@H](c4ccc(C(F)(F)F)nc4)CC3)CC2)C1` [81A*, 7-((1r,4r)-4-(6-(Trifluoromethyl)pyridin-3-yl)cyclohexyl)-2-thia-7-azaspiro[3.5]nonane 2,2-dioxide], for which, in assay [1], the inhibition constant Ki was 0.085 µM. Moreover, the concentration for a half-maximal effect (EC50) in assay [2] was determined as 0.036 µM.

Consider `CC(C)(C)n1nc(C(F)(F)F)cc1[C@H]1CC[C@H](N2CCC3(CC2)CS(=O)(=O)C3)CC1` [Compound 85A, 7-((1r,4r)-4-(1-(tert-Butyl)-3-(trifluoromethyl)-1H-pyrazol-5-yl)cyclohexyl)-2-thia-7-azaspiro[3.5]nonane 2,2-dioxide], for which, in assay [1], the affinity, expressed as Ki, was 0.015 µM. For the same compound, the EC50 in assay [2] stood at 0.0081 µM.

Turning to `CC(C)n1nc(-c2ccc(C(F)(F)F)cc2)nc1[C@@H]1CC[C@H](N2CCC3(C2)CS(=O)(=O)C3)C1` (single isomer, unassigned) [53C*], affinity in assay [1] was put at a Ki of 0.01 µM. Also, the concentration giving a half-maximal response (EC50) in assay [2] turned out to be 0.0011 µM.

In assay [1], `O=S1(=O)CC2(CCN([C@H]3CC[C@H](c4cnc(C(F)(F)F)nc4)CC3)C2)C1` [Compound 94A, 6-((1r,4r)-4-(2-(Trifluoromethyl)pyrimidin-5-yl)cyclohexyl)-2-thia-6-azaspiro[3.4]octane 2,2-dioxide] gave a Ki of 0.23 µM. For the same compound, the EC50 in assay [2] worked out at 0.081 µM.

Turning to `O=S1(=O)CCC2(CCN([C@H]3CC[C@@H](c4ccc(C(F)(F)F)cn4)CC3)C2)CC1` [84A*, 2-((1r,4r)-4-(5-(Trifluoromethyl)pyridin-2-yl)cyclohexyl)-8-thia-2-azaspiro[4.5]decane 8,8-dioxide], the affinity in assay [1] corresponds to a Ki of 0.31 µM. In addition, the EC50 in assay [2] came out at 0.1 µM.

Regarding `O=S1(=O)CC[C@]2(CCCN([C@H]3CC[C@H](c4cc(C(F)(F)F)nn4C4CC4)CC3)C2)C1` (single isomer, unassigned) [69D*], the Ki in assay [1] amounted to 0.05 µM. In assay [2], the 50% effective concentration (EC50) was found to be 0.058 µM.

In assay [1], `O=S1(=O)CC2(CCN([C@H]3CC[C@@H](c4cnc(C(F)(F)F)c(F)c4)CC3)C2)C1` [Compound 72B, 6-((1s,4s)-4-(5-fluoro-6-(trifluoromethyl)pyridin-3-yl)cyclohexyl)-2-thia-6-azaspiro[3.4]octane 2,2-dioxide] returned a Ki of 0.026 µM. The half-maximal effective concentration (EC50) in assay [2] is 0.059 µM.

The compound `O=S1(=O)CC2(CCN([C@H]3CC[C@@H](c4cncc(C(F)(F)F)c4)CC3)C2)C1` [Compound 63B, 6-((1s,4s)-4-(5-(trifluoromethyl)pyridin-3-yl)cyclohexyl)-2-thia-6-azaspiro[3.4]octane 2,2-dioxide] gave an inhibition constant Ki in assay [1] of 0.066 µM. Moreover, the EC50 in assay [2] came to 0.289 µM.

In the case of `CCc1nc(C(F)(F)F)ccc1[C@H]1CC[C@@H](N2CCC3(C2)CS(=O)(=O)C3)CC1` [Compound 64B, 6-((1s,4s)-4-(2-ethyl-6-(trifluoromethyl)pyridin-3-yl)cyclohexyl)-2-thia-6-azaspiro[3.4]octane 2,2-dioxide], the affinity in assay [1], expressed as Ki, was 0.012 µM. The EC50 in assay [2] was 0.0032 µM.

Take `O=S1(=O)CC2(CCN([C@H]3CC[C@@H](c4cnc(C(F)(F)F)nc4)CC3)C2)C1` [Compound 94B, 6-((1s,4s)-4-(2-(trifluoromethyl)pyrimidin-5-yl)cyclohexyl)-2-thia-6-azaspiro[3.4]octane 2,2-dioxide]: in assay [1], affinity was put at a Ki of 0.115 µM. Also, the 50% effective concentration (EC50) in assay [2] turned out to be 0.25 µM.

Regarding `O=S1(=O)CC[C@@]2(CCCN([C@H]3CC[C@H](c4cc(C(F)(F)F)nn4C4CC4)CC3)C2)C1` (single isomer, unassigned) [69B*], the inhibition constant (Ki) in assay [1] was found to be 0.035 µM. The concentration giving a half-maximal response (EC50) in assay [2] worked out at 0.023 µM.

Compound `CC(C)n1nc(C(F)(F)F)cc1[C@@H]1CCC[C@@H](N2CCC3(C2)CS(=O)(=O)C3)C1` (single isomer, unassigned) [61A*] displayed a Ki in assay [1] of 0.08 µM. Moreover, in assay [2], the 50% effective concentration (EC50) was more than 0.33 µM.

In assay [1], `CC(C)n1nc(C(F)(F)F)cc1[C@H]1CCC[C@H](N2CCC3(C2)CS(=O)(=O)C3)C1` (single isomer, unassigned) [61D*] showed an inhibition constant (Ki) of 0.344 µM. In assay [2], the 50% effective concentration (EC50) is more than 0.33 µM.

Turning to `O=S1(=O)CC2(CCN([C@H]3CC[C@H](c4ccnc(C(F)(F)F)c4)CC3)CC2)C1` [Compound 90B, 7-((1r,4r)-4-(2-(trifluoromethyl)pyridin-4-yl)cyclohexyl)-2-thia-7-azaspiro[3.5]nonane 2,2-dioxide], the inhibitory constant (Ki) in assay [1] is 1.29 µM. Besides, the 50% effective concentration (EC50) in assay [2] came to 0.042 µM.

With `CC(C)[C@@H]1C[C@@H](N2CCC3(C2)CS(=O)(=O)C3)CCN1c1ccc(C(F)(F)F)nc1` (single isomer, unassigned) [82B*], in assay [1], the inhibition constant Ki is 0.046 µM. For the same compound, in assay [2], the EC50 came to 0.019 µM.

In turn, `O=S1(=O)CC2(CCN([C@H]3CC[C@H](c4ncc(C(F)(F)F)cc4F)CC3)CC2)C1` [Compound 80A, 7-((1r,4r)-4-(3-Fluoro-5-(trifluoromethyl)pyridin-2-yl)cyclohexyl)-2-thia-7-azaspiro[3.5] nonane 2,2-dioxide] gave an inhibitory constant (Ki) in assay [1] of 0.067 µM. Further, the EC50 in assay [2] was 0.011 µM.

The compound `CC(C)n1nc(C(F)(F)F)cc1[C@@H]1CCC[C@@H](N2CCC3(CC2)CS(=O)(=O)C3)C1` (single isomer, unassigned) [78A*] yielded a Ki in assay [1] of 0.071 µM. In addition, in assay [2], the concentration giving a half-maximal response (EC50) is more than 0.33 µM.

On to `O=S1(=O)CC2(CCN([C@H]3CC[C@H](c4cncc(C(F)(F)F)c4)CC3)C2)C1` [Compound 63A, 6-((1r,4r)-4-(5-(trifluoromethyl)pyridin-3-yl)cyclohexyl)-2-thia-6-azaspiro[3.4]octane 2,2-dioxide], for which, in assay [1], the affinity, expressed as Ki, was 0.075 µM. For the same compound, the concentration for a half-maximal effect (EC50) in assay [2] is 0.012 µM.

Turning to `CC(C)C1C[C@H](N2CCC3(C2)CS(=O)(=O)C3)CCN1c1ccc(C(F)(F)F)nc1` (stereo in doubt) [82A*, 6-((2R,4R)-2-Isopropyl-1-(6-(trifluoromethyl)pyridin-3-yl)piperidin-4-yl)-2-thia-6-azaspiro[3.4]octane 2,2-dioxide], in assay [1], the Ki was found to be 0.089 µM. Also, the EC50 in assay [2] amounted to 0.28 µM.
